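All cell lines were grown in 96-well plates and treated with compound for 48 hours. GI50 marks 50% less growth. TGI marks complete inhibition of growth.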
What was measured:
Assay in all cases: inhibition of tumour cell growth, NCI panel, 48 h
HL-60(TB) leukemia = tested on: HL-60(TB) leukemia
SW-620 colon = tested on: SW-620 colon
M14 melanoma = tested on: M14 melanoma
PC-3 prostate = tested on: PC-3 prostate
HT29 colon = tested on: HT29 colon
MCF7 breast = tested on: MCF7 breast
SK-MEL-28 melanoma = tested on: SK-MEL-28 melanoma
CCRF-CEM leukemia = tested on: CCRF-CEM leukemia
BT-549 breast = tested on: BT-549 breast
HCC-2998 colon = tested on: HCC-2998 colon

| Structure (SMILES) | TGI (HL-60(TB) leukemia) [µM] | TGI (SW-620 colon) [µM] | TGI (M14 melanoma) [µM] | TGI (PC-3 prostate) [µM] | TGI (HT29 colon) [µM] | TGI (MCF7 breast) [µM] | TGI (SK-MEL-28 melanoma) [µM] | TGI (CCRF-CEM leukemia) [µM] | TGI (BT-549 breast) [µM] | TGI (HCC-2998 colon) [µM] | GI50 (HL-60(TB) leukemia) [µM] | GI50 (HCC-2998 colon) [µM] | GI50 (SW-620 colon) [µM] | GI50 (M14 melanoma) [µM] | GI50 (PC-3 prostate) [µM] | GI50 (HT29 colon) [µM] | GI50 (MCF7 breast) [µM] | GI50 (SK-MEL-28 melanoma) [µM] | GI50 (BT-549 breast) [µM] | GI50 (CCRF-CEM leukemia) [µM] |
| --- | --- | --- | --- | --- | --- | --- | --- | --- | --- | --- | --- | --- | --- | --- | --- | --- | --- | --- | --- | --- |
| Cc1ccc2c(c1)nc(N)n[n+]2[O-] | > 100 | > 100 | > 100 | > 100 | > 100 | > 100 | > 100 | > 100 | > 100 | – | – | – | – | – | – | – | – | – | – | – |
| COc1cc2oc(-c3ccc(O)cc3)c(OC3OC(C)C(O)C(O)C3O)c(=O)c2c(O)c1OC (stereo not given) | > 100 | > 100 | > 100 | > 100 | > 100 | > 100 | > 100 | > 100 | > 100 | > 100 | – | – | – | – | – | – | – | – | – | – |
| C/C(=N\NC(=S)NC(C)C)c1nc2ncccc2[nH]1 | > 100 | > 100 | > 100 | > 100 | > 100 | > 100 | > 100 | > 100 | 58.9 | > 100 | – | – | – | – | – | – | – | – | – | – |
| CCC(=O)C(c1ccccc1)c1ccccn1 (stereo not given) | > 100 | > 100 | > 100 | > 100 | > 100 | > 100 | > 100 | > 100 | > 100 | > 100 | – | – | – | – | – | – | – | – | – | – |
| Cc1[nH]c(/C=C2\C(=O)Nc3ccc(S(=O)(=O)Cc4c(Cl)cccc4Cl)cc32)c(C)c1C(=O)N1CCC[C@@H]1CN1CCCC1 | 5.49 | 3.29 | 2.92 | > 21.5 | 3.07 | 3.64 | 2.75 | – | 83.1 | 3.6 | 1.97 | 1.95 | 1.78 | 1.5 | 1.73 | 1.62 | 1.69 | 1.4 | 14.1 | – |
| COC1OC(=O)[C@H]2O[N+]([O-])=C(C)[C@@H]12 (stereo not given in full) | > 100 | > 100 | – | – | > 100 | > 100 | > 100 | > 100 | – | > 100 | – | – | – | – | – | – | – | – | – | – |
| OCC1CCCC(n2cnc3c(=S)nc[nH]c32)O1 (stereo not given) | – | > 100 | > 100 | > 100 | > 100 | > 100 | > 100 | – | > 100 | > 100 | – | – | – | – | – | – | – | – | – | – |
| C=CC(=O)Nc1cccc(-c2nc(SC)nc(Nc3ccccc3OC)c2C#N)c1 | 13 | – | 5.64 | 4.9 | – | – | 5.71 | > 100 | 38.5 | 8.66 | 2.53 | 2.58 | – | 2.22 | 1.94 | – | – | 2.29 | 3.19 | 3.07 |
| O=C(O)c1ccc(NC(c2ccccc2)c2ccc3cccnc3c2O)cc1 (stereo not given) | 10.4 | > 55.8 | > 85.5 | > 96 | > 100 | > 80.7 | > 100 | 6.05 | > 74 | > 74.8 | – | – | – | – | – | – | – | – | – | – |
| N#Cc1c(NC(=S)NC(=O)c2ccccc2)nc2c(c1-c1ccccc1)CCC2 | > 100 | > 100 | > 100 | > 100 | > 100 | – | – | > 100 | > 100 | – | – | – | – | – | – | – | – | – | – | – |
| Nc1n[nH]c(=O)[nH]1 | > 100 | > 100 | – | – | > 100 | > 100 | > 100 | > 100 | – | > 100 | – | – | – | – | – | – | – | – | – | – |
| O=C(Nc1ccc(I)cc1C(=O)NCCO)c1cccs1 | > 100 | > 100 | > 100 | > 100 | > 100 | > 100 | > 100 | > 100 | > 100 | > 100 | – | – | – | – | – | – | – | – | – | – |
